Results as given in BigSolDB 2.1.

NC(=O)N/N=C/c1ccc([N+](=O)[O-])o1
solubility (mole fraction)
Conditions | 278.15 K | 283.15 K | 288.15 K | 293.15 K | 298.15 K | 303.15 K | 308.15 K | 313.15 K | 318.15 K | 323.15 K
in DMSO | – | – | – | 0.0448 | 0.0469 | 0.0493 | 0.053 | 0.0577 | 0.0636 | 0.0709
in NMP | 0.0317 | 0.0354 | 0.0396 | 0.0457 | 0.0522 | 0.0591 | 0.0662 | 0.075 | 0.0853 | 0.0985
in ethanol | 6.72e-05 | 8.38e-05 | 0.000102 | 0.000123 | 0.000149 | 0.000178 | 0.000213 | 0.000258 | 0.000303 | 0.000364
in isopropanol | 6.89e-05 | 8.99e-05 | 0.000117 | 0.000138 | 0.000175 | 0.000223 | 0.00027 | 0.000331 | 0.00039 | 0.000484
in water | 1.32e-05 | 1.66e-05 | 1.96e-05 | 2.46e-05 | 2.98e-05 | 3.66e-05 | 4.5e-05 | 5.75e-05 | 6.84e-05 | 8.47e-05
